From patent publication US20030190334A1, “Low dose liquid entecavir formulations and use” (priority 2002, published 2003)

Assay: Reaction of entecavir with sweetener or flavoring agent that contains aldehyde and/or ketone groups
Assay type: physicochemical
Text: While entecavir is potent, it is also extremely bitter. To combat the bitterness, a sweetener is generally used. However, entecavir has shown a tendency to react with commonly used sweeteners, such as sucrose, creating stability concerns. Entecavir has a primary amine group in its structure that has the propensity to react with any sweetener or flavoring agent that contains aldehyde and/or ketone groups.

reaction with sweetener or flavoring agent that contains aldehyde and/or ketone groups (pH 5 to 7): minimized | reaction with sweetener or flavoring agent that contains aldehyde and/or ketone groups (weakly acidic pH (pH 3 to 4)): more pronounced
SMILES: C=C1[C@H](CO)[C@@H](O)C[C@@H]1n1cnc2c(=O)[nH]c(N)nc21 [Entecavir, [1S-(1α,3α,4β)]-2-amino-1,9-dihydro-9-[4-hydroxy-3-(hydroxymethyl)-2-methylenecyclopentyl]-6H-purin-6-one]
